This is an account of results in patent US6020330A, “Hypolipidemic 1,4-benzothiazepine-1,1-dioxides” (Hoechst Aktiengesellschaft, priority 1997, dated 2000).

In the assay the target is T1, ileal transporter of the rabbit (RIBAT) (Oryctolagus cuniculus, UniProt Q28727).
T1 construct: contained the total protein-coding region of the RIBAT; expressed in transfected cells; host or cells: CHO cells, stably transfected with pRIBAT8 (pcDNA1neo vector), G418-selected clonal line
T1 sequence (Q28727 1-347): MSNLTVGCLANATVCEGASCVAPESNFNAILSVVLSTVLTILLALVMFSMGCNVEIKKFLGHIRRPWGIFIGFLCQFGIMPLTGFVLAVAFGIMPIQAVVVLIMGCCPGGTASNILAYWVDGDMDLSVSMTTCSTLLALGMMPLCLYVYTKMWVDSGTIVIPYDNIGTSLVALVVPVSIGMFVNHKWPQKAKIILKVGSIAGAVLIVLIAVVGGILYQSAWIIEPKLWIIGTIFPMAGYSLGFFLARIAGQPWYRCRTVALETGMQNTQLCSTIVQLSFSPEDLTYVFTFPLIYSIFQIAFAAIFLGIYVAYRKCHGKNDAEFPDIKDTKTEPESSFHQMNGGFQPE
Nature of the assay: Inhibition of [24-14C]-taurocholic acid uptake in CHO/pRIBAT8 cells. It counts as cell-based. Particulars: 21° C., 30 minutes. The source says: These were derivatives of the generally known "Chinese hamster ovary" (CHO) cell line, which on account of incorporated expression plasmids additionally produced sodium-dependent bile acid transporters. The first cell line (CHO/pRIBAT8) was in this case the ileal transporter of the rabbit (RIBAT), the second (CHO/pHIBAT8) the ileal transporter of the human (HIBAT) and the third (CHO/pHLBAT5) the hepatic transporter of the human. All plasmids were based on the standard plasmid pCDNA1neo, which as important elements has a cytomegaloviral promoter for the permanent expression of heterologous genes and a gene for the production of cell resistance against the substance G418.
The starting material for the production of the plasmid for the RIBAT-producing cell line (pRIBAT8) was total RNA of the terminal ileum of the rabbit. […]
For the preparation of the genetically modified cell lines, CHO cells were transfected with DNA from pRIBAT8, pHIBAT8 or pHLBAT5 and cells which developed resistance against the selection substance G418 were selectively additionally cultured by addition of the substance to the cell medium. […] They could thereby be easily differentiated from cells without intact bile acid transporters with the aid of a fluorescence microscope. […]

For orientation: IC50 means the concentration that gives 50% inhibition. For `CCCCC1(CC)CS(=O)(=O)c2cc(O[C@@H]3O[C@H](C(=O)O)[C@@H](O)[C@H](O)[C@H]3O)ccc2C(c2ccccc2)N1` (stereo partly shown) [Example 3], half-maximal inhibition (IC50) was put at 70 nM.
